# From paper PMC9811466, “Structural Features Affecting the Interactions and Transportability of LAT1-Targeted Phenylalanine Drug Conjugates” (Molecular Pharmaceutics, 2022)
# Like-named read-outs stand apart in the source and are kept apart here.
# Experiments:
# hLAT1/4F2hc [1] = target: T1, hLAT1/4F2hc (Homo sapiens, UniProt Q01650); experiment: cis-inhibition of [14C]-L-leucine uptake in HEK-hLAT1 cells; format: cell-based; details: for inhibition at 50 µM: read-out: [14C]-L-Leucine uptake inhibition % (50μM)
# T1 construct: Invitrogen (host cells)
# T1 sequence (Q01650 whole entry): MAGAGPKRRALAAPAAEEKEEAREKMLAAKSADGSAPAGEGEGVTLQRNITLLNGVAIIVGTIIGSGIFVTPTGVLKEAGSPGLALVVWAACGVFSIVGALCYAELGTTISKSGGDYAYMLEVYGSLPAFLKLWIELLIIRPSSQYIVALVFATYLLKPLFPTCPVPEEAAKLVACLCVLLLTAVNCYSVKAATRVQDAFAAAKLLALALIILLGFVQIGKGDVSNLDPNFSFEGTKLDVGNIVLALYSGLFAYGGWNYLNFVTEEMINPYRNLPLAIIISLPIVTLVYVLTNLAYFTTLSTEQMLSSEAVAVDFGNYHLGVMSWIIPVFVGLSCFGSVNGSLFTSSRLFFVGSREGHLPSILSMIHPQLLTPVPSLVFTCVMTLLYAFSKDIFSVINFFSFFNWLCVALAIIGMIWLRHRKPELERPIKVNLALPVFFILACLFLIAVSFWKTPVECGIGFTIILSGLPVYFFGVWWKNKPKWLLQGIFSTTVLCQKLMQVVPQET
# T1 sequence (P08195 102-630 partner): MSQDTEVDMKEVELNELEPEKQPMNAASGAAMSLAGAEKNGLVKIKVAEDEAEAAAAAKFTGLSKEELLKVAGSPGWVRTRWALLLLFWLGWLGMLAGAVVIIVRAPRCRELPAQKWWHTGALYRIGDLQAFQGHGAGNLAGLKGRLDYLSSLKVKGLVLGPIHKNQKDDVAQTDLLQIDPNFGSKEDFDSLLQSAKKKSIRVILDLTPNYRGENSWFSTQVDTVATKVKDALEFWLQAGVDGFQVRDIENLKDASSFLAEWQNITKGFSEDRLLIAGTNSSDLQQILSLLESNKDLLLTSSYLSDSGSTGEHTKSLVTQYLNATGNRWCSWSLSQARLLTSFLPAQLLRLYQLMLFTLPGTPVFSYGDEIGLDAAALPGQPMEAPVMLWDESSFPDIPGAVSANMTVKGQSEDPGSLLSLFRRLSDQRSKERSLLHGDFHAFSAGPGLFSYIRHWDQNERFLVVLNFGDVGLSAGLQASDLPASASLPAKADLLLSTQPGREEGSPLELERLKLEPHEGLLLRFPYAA
# Experimental: (§1) In the following experiments, the MCF-7, HEK-hLAT1, and HEK-MOCK cells were cultured, seeded, and preincubated as described above. The HBSS was removed, and the ability of the compounds to inhibit the uptake of a known LAT1 substrate, [^14C]-L-leucine (PerkinElmer, Waltham, MA, USA), was studied by incubating the cells at RT for 10 min in uptake buffer pH 7.4 (250 μL) containing 0.76 μM (0.1 mCi/mL) of [^14C]-L-leucine and 0.025–1800 μM of the studied compound (or HBSS as blank). After incubation, the reaction was stopped with ice-cold HBSS, and the cells were washed two times with ice-cold HBSS. The cells were then lysed with 250 μL of 0.1 M sodium hydroxide, the lysate was mixed with 1.0 mL of Emulsifier safe cocktail (PerkinElmer, Waltham, MA, USA), and the radioactivity was measured with a liquid scintillation counter (MicroBeta^2 counter, PerkinElmer, Waltham, MA, USA). The inhibition of [^14C]-L-leucine in the presence of the studied compounds as compared to the control (HBSS) was calculated as percentages (%).
# Using the stably hLAT1/4F2hc expressing cell line, the compounds’ inhibitory efficiencies and uptake kinetics were determined via the cis-inhibition assay and uptake studies, respectively. (Table 1) Cis-inhibition is based on the competition between the ligand and LAT1 substrate [^14C]-L-leucine that results in inhibition of substrate uptake. The competitive uptake with L-leucine is reported as the IC50 value of L-leucine uptake and extent as inhibition percentage (%) at a given concentration.
# [2] = target: T2, LAT1 in MCF-7 human breast cancer cells (Homo sapiens, UniProt Q01650); experiment: cis-inhibition of [14C]-L-leucine uptake in MCF-7 cells; format: cell-based; details: for inhibition at 50 µM: MCF7, MCF-7 cells, 50 μM compound; for IC50: MCF-7 cells
# T2 construct: wild-type MCF-7 human breast cancer cell line; endogenous in cells; host or cells: MCF-7 human breast cancer cells (wild type)
# T2 sequence (Q01650 whole entry): as the sequence (Q01650 whole entry) above
# T2 sequence (P08195 102-630 partner): as the sequence (P08195 102-630 partner) above
# Experimental: Cells were cultured in DMEM (Gibco, ThermoFisher Scientific, Waltham, MA, USA) supplemented with L-glutamine (2 mM; ThermoFisher Scientific, Waltham, MA, USA), heat-inactivated fetal bovine serum (10%; Gibco, ThermoFisher Scientific, Waltham, MA, USA), penicillin (50 U/mL)-streptomycin (50 μg/mL) solution (ThermoFisher Scientific, Waltham, MA, USA), and hygromycin B solution (100 μg/mL) for transfected cells. HEK-hLAT1 and HEK-MOCK cells (passages 7–20) were seeded at a density of 5 × 10^5 cells/wells onto 24-well plates. The cells were used in the characterization, competition, and uptake studies 2 days after seeding. MCF-7 cells were seeded at a density of 1 × 10^5 and were used in the competition studies 1 day after seeding. The culture medium was removed, and the cells were washed with prewarmed Hanks’ balanced salt solution (HBSS; 125 mM NaCl, 4.8 mM KCl, 1.2 mM MgSO4, 1.2 mM KH2PO4, 1.3 mM CaCl2, 5.6 mM D-glucose, and 25 mM HEPES, pH 7.4). The cells were then incubated with HBSS at 37 °C for 10 min before the experiments.
# as §1
# hLAT1/4F2hc [3] = target: T1, hLAT1/4F2hc; experiment: Concentration-dependent cellular uptake into HEK-hLAT1 cells (LC-MS/MS, Michaelis-Menten); format: cell-based; details: difference in uptake HEK-hLAT1 vs HEK-MOCK, with docking poses; 2-100 μM curves
# hLAT1/4F2hc [4] = target: T1, hLAT1/4F2hc; experiment: as above; format: cell-based; details: HEK-hLAT1 cells, known LAT1 substrates, n = 3; for Vmax: 2-400 μM, 10 min
# Experimental: (§2) The concentrations for the compounds were in the range of 2–400 μM. Otherwise, the experiment was carried out as described above and analyzed by liquid chromatography coupled with an electrospray ionization (ESI) triple quadrupole mass spectrometer (LC–MS–MS). […]
# (§3) The concentration-dependent uptake studies were performed by adding 2–400 μM of the tested compound in 250 μL of prewarmed HBSS buffer on the cell layer. […] After incubation, the cells were washed and lysed as described above. The lysate was collected from wells into an Eppendorf tube and centrifuged at 4 °C, the supernatant was collected, and the intracellular concentrations of studied compounds were analyzed by liquid chromatography coupled with an ESI triple quadrupole mass spectrometer (LC–MS–MS). The results were calculated from the standard curve that was prepared by spiking known amounts of each compound to the cell lysate and normalized to protein concentration. The protein concentrations on each plate were determined as a mean of three samples by Bio-Rad Protein Assay, based on the Bradford dye-binding method, using BSA as a standard protein and measuring the absorbance (595 nm) by a multiplate reader (EnVision, PerkinElmer, Inc., Waltham, MA, USA). All statistical analyses (Michaelis–Menten kinetic parameters) were performed using GraphPad Prism v. 5.03 software (GraphPad Software, San Diego, CA., USA). […]
# (§4) After protein precipitation, the samples were centrifuged for 10 min with 10,000 g at 4 °C. The supernatant was then collected and transferred to vials for LC–MS/MS analysis. For BCH and gabapentin, cells were also lysed with 0.1 M NaOH, an aliquot was taken from the lysates, and perchloric acid (PCA) was added to precipitate the proteins. The samples were then centrifuged, and the supernatant was diluted 1:10 with H20 with 0.1% formic acid including the IS and transferred to vials for analysis.
# (§5) The samples were analyzed with LC–MS/MS coupled with an Agilent 1200 series Rapid Resolution LC System (Agilent Technologies, Waldbronn, Germany) and an Agilent 6410 Triple Quadrupole with electrospray ionization (ESI) (Agilent Technologies, Palo Alto, CA, USA). […] The aqueous mobile phase was 0.1% formic acid in water (A), while the organic mobile phase was 0.1% formic acid in acetonitrile (B). […] For compound 4: 0–4 min 10% → 90% B, 4–6 min 90% B, 6–6.1 min 90% → 10%, 6.1–9 min 10%. For compound 5: 0–1 min 20% → 95% B, 1–4 min 95%, 4–4.1 min 95% → 20%, 4.1–7 min 20%. For compounds 6 and 9: 0–2 min 10% → 95%, 2–6 min 95%, 6–6.1 min 95% → 10%, 6.1–9 min 10%. For compound 8: 0–1 min 20% → 80%, 1–5.2 min 80%, 5.2–5.3 min 80% → 20%, 5.3–9 min 20%.
# HEK-MOCK cells [5] = experiment: Concentration-dependent cellular uptake into HEK-MOCK cells; format: cell-based, human; details: known LAT1 substrates, n = 3; for Vmax: 2-400 μM, 10 min
# Experimental: as §2, §3, §4, §5
# HEK-MOCK cells [6] = experiment: cis-inhibition of [14C]-L-leucine uptake in HEK-MOCK cells; format: cell-based, human; details: for [14C]-L-Leucine uptake inhibition % (50μM): 50 μM compound, 0.76 μM [14C]-L-leucine; for IC50: read-out: IC50 of [14C]-L-leucine uptake
# Experimental: as §1
# Using the stably hLAT1/4F2hc expressing cell line, the compounds’ inhibitory efficiencies and uptake kinetics were determined via the cis-inhibition assay and uptake studies, respectively. (Table 1) Cis-inhibition is based on the competition between the ligand and LAT1 substrate [^14C]-L-leucine that results in inhibition of substrate uptake. The competitive uptake with L-leucine is reported as the IC50 value of L-leucine uptake and extent as inhibition percentage (%) at a given concentration. Overall, the inhibition trends of the tested compounds were similar between HEK-hLAT1 and MCF-7 cells. In the next step, more straightforward results were obtained by undertaking direct cellular uptake studies with both HEK-hLAT1 and HEK-MOCK cells. This experiment enabled us to determine not only the uptake kinetics (Vmax and Km) of the ligands but also their preference for LAT1-expressing cells over the comparator HEK-MOCK cells.
# [7] = HEK-hLAT1 cells, 50 μM compound, compounds 1-12
# [8] = HEK-hLAT1 cells, compounds 1-12, read-out: IC50 of [14C]-L-leucine uptake
# [9] = HEK-hLAT1 cells, known substrates, read-out: IC50 of [14C]-L-leucine uptake
# [10] = HEK-MOCK cells, 10 min, known substrates
SMILES,inhibition at 50 µM (hLAT1/4F2hc [1]; [7]) [%],IC50 (hLAT1/4F2hc [1]; [8]) [µM],inhibition at 50 µM [2] [%],IC50 [2] [µM],interaction class with LAT1 (interaction and transportability) (hLAT1/4F2hc [3]),Vmax (hLAT1/4F2hc [4]),Km (hLAT1/4F2hc [4]; read-out: Km) [µM],Vmax (HEK-MOCK cells [5]),Km (HEK-MOCK cells [5]) [µM],"inhibition at 50 µM (hLAT1/4F2hc [1]; HEK-hLAT1 cells, 50 μM compound, 0.76 μM [14C]-L-leucine, 10 min, known substrates) [%]",IC50 (hLAT1/4F2hc [1]; [9]) [µM],[14C]-L-Leucine uptake inhibition % (50μM) (HEK-MOCK cells [6]; [10]),"IC50 (HEK-MOCK cells [6]; Homo sapiens, HEK-MOCK cells, known substrates) [µM]",Km (hLAT1/4F2hc [4]) [µM],IC50 (hLAT1/4F2hc [1]) [µM],inhibition at 50 µM (hLAT1/4F2hc [1]) [%],"inhibition at 50 µM (HEK-MOCK cells [6]; Homo sapiens, 10 min, read-out: [14C]-L-Leucine uptake inhibition % (50μM)) [%]",IC50 (HEK-MOCK cells [6]; Homo sapiens) [µM]
CC(C(=O)Nc1cccc(C[C@H](N)C(=O)O)c1)c1ccc(-c2ccccc2)c(F)c1 (some centres unmarked) [Compound 11],26.4 ± 3.1,> 100,84 ± 3.1,2.2 ± 1.3,not interacting with LAT1,,,,,,,,,,,,,
COc1ccc2cc(C(C)C(=O)Nc3cccc(C[C@H](N)C(=O)O)c3)ccc2c1 (some centres unmarked) [Compound 12],28 ± 2.6,> 100,83 ± 1.7,5.6 ± 1.3,not interacting with LAT1,,,,,,,,,,,,,
"NCC1(CC(=O)O)CCCCC1 [Gabapentin, reference compound]",,,,,,18±9.9 nmol/min/mg of protein,552 ± 334,4.7±1.6 nmol/min/mg of protein,182 ± 86,46.7 ± 1.7,36,no inhibition,> 1000,,,,,
"N[C@@H](Cc1ccc(O)c(O)c1)C(=O)O [L-DOPA, reference compound]",,,,,,15±7.6 nmol/min/mg of protein,763 ± 413,2.8±0.9 nmol/min/mg of protein,225 ± 90,,4.1,no inhibition,,,,,,
"N[C@@H](Cc1ccc(N(CCCl)CCCl)cc1)C(=O)O [Melphalan, reference compound]",,,,,,0.08±0.01 nmol/min/mg of protein,,0.07±0.09 nmol/min/mg of protein,91 ± 21,,,no inhibition,,35 ± 7,6.6,38.2 ± 2.4,,
"N[C@@H](Cc1c[nH]c2ccccc12)C(=O)O [Tryptophan, L-tryptophan, reference compound]",,,,,,12±19 nmol/min/mg of protein,,0.3±0.2 nmol/min/mg of protein,482 ± 496,,24,,,,,50.2 ± 1.7,19.6 ± 6.2,163
